ChEMBL document CHEMBL1145800, “QSAR and proteo-chemometric analysis of the interaction of a series of organic compounds with melanocortin receptor subtypes” (J Med Chem, 2003)

Legend:
[1] = target: Melanocyte-stimulating hormone receptor (Homo sapiens, UniProt Q01726); assay: Binding affinity towards Melanocortin 1 receptor, expressed as negative log of the Ki value
Melanocortin receptor 4 = Melanocortin receptor 4 (Homo sapiens, UniProt P32245); assay: Binding affinity towards Melanocortin 4 receptor, expressed as negative log of the Ki value
Melanocortin receptor 3 = Melanocortin receptor 3 (Homo sapiens, UniProt P41968); assay: Binding affinity towards Melanocortin 3 receptor, expressed as negative log of the Ki value
Melanocortin receptor 5 = Melanocortin receptor 5 (Homo sapiens, UniProt P33032); assay: Binding affinity towards Melanocortin 5 receptor, expressed as negative log of the Ki value
Sequence of Melanocortin receptor 5 (P33032 whole entry): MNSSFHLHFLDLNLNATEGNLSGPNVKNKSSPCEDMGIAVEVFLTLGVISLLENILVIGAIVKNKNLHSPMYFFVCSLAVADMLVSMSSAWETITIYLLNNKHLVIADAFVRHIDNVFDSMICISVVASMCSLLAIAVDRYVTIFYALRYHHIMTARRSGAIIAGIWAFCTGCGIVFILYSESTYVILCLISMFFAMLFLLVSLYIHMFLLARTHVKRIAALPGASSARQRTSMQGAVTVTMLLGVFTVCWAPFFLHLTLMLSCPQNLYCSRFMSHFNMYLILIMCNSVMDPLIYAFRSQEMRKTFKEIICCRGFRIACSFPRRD

Sequence of Melanocortin receptor 3 (P41968 whole entry): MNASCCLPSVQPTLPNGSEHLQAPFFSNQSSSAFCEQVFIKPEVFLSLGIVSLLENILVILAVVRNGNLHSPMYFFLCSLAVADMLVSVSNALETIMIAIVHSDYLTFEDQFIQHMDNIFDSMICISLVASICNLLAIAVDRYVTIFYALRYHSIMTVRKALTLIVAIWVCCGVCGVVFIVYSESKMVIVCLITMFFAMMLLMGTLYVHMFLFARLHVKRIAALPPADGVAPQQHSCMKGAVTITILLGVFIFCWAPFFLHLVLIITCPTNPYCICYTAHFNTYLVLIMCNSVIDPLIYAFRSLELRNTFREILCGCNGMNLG
Sequence of Melanocyte-stimulating hormone receptor (Q01726 whole entry): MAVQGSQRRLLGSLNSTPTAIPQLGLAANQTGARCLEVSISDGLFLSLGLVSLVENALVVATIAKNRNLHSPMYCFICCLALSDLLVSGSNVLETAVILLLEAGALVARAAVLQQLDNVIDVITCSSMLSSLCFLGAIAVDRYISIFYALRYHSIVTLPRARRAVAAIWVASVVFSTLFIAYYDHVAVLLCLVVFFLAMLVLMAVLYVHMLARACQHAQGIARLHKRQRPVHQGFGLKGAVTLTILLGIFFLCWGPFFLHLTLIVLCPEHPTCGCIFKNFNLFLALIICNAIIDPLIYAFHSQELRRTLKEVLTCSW
Sequence of Melanocortin receptor 4 (P32245 whole entry): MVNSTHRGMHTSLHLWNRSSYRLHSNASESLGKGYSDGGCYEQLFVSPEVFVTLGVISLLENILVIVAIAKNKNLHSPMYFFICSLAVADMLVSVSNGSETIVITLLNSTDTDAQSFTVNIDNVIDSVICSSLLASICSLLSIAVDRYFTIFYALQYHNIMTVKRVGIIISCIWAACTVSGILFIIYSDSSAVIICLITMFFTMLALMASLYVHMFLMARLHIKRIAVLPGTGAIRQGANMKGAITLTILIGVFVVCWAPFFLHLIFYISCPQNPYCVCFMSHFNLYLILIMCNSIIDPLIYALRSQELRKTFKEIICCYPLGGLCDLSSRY

NCCCCCC(=O)N(Cc1ccc2ccccc2c1)Cc1cccc2ccccc12
Ki [1]: 1.58 µM | Ki (Melanocortin receptor 4): 2 µM | Ki (Melanocortin receptor 3): 31.6 µM | Ki (Melanocortin receptor 5): 3.98 µM

N=C(N)NCCCNC(=O)[C@H](CCCN=C(N)N)NCc1ccc2ccccc2c1
Ki [1]: 3.98 µM | Ki (Melanocortin receptor 4): 31.6 µM | Ki (Melanocortin receptor 3): 5.01 µM | Ki (Melanocortin receptor 5): 1000 µM

NC(N)=NCCC[C@H](N)C(=O)N(Cc1ccc2ccccc2c1)Cc1cccc2ccccc12
Ki [1]: 0.631 µM | Ki (Melanocortin receptor 4): 5.01 µM | Ki (Melanocortin receptor 3): 7.94 µM

NCCCNC(=O)[C@H](CNCc1c[nH]c2ccccc12)NCc1ccc2ccccc2c1
Ki [1]: 0.631 µM | Ki (Melanocortin receptor 4): 25.1 µM | Ki (Melanocortin receptor 3): 50.1 µM | Ki (Melanocortin receptor 5): 39.8 µM
